Patent publication US9340569B2, “Methods and compositions for inhibiting clostridium difficile spore germination and outgrowth” (priority 2008, dated 2016)
pKi: −log10 of the molar value. Entries after “also recorded” stand apart in the source; their conditions may differ. Where a name gives a salt, the structure may show the parent alone. Read-outs that look alike come from different tables or passages of the source.

Columns and labels:
C. difficile spores [1] = test: Inhibition of taurocholate-induced C. difficile spore germination, Ki from Lineweaver-Burk plot; assay type: cell-based, Clostridium difficile; settings: for Inhibits Germination?: BHIS with 2-50 mM taurocholate plus inhibitor, OD600; for pKi: binding constant of inhibitor for the spore, competition with taurocholate
[2] = rat, in vivo; cited from earlier work
vegetative C. difficile = assay type: cell-based, Clostridium difficile
C. difficile spores [3] = assay type: cell-based, Clostridium difficile
C. perfringens SM101 = assay type: cell-based, Clostridium perfringens
C. difficile spores [4] = assay type: cell-based, Clostridium difficile; remark: listed apart in the source
C. difficile spores [5] = tested on: C. difficile spores
[6] = in vivo; cited from earlier work

CC(=O)O[C@@H]1CC[C@@]2(C)[C@H](CC[C@@H]3[C@@H]2CC[C@]2(C)[C@@H]([C@H](C)CCC(=O)O)CC[C@@H]32)C1 [5β-cholanic acid 3α-ol-acetate]
Inhibits Germination? (C. difficile spores [1]): No

CCN(CCS(=O)(=O)O)C(=O)CC[C@@H](C)[C@H]1CC[C@H]2[C@@H]3[C@@H](O)C[C@@H]4C[C@H](O)CC[C@]4(C)[C@H]3CC[C@]12C [N-ethyl-tauroursodeoxycholate]
deconjugation [2]: 3.4+/−2.1%

C[C@H](CCC(=O)NCCS(=O)(=O)O)[C@H]1CC[C@H]2[C@@H]3[C@@H](O)C[C@@H]4C[C@H](O)CC[C@]4(C)[C@H]3CC[C@]12C [tauroursodeoxycholate]
deconjugation [2]: 100%

COC(=O)CC[C@@H](C)[C@H]1CC[C@H]2[C@@H]3C[C@@H](O)[C@@H]4C[C@H](O)CC[C@]4(C)[C@H]3CC[C@]12C [5β-cholanic acid 3α,6β diol methyl ester]
Inhibits Germination? (C. difficile spores [1]): Yes
pKi (C. difficile spores [1]): 4.32

C[C@H](CCC(=O)NCC(=O)O)[C@H]1CC[C@H]2[C@@H]3[C@H](O)C[C@@H]4C[C@H](O)CC[C@]4(C)[C@H]3C[C@H](O)[C@]12C [GA, glycocholate]
growth of vegetative C. difficile (vegetative C. difficile): able to grow
colony formation by spores, in words (C. difficile spores [3]): stimulated efficient colony formation
growth of vegetative C. perfringens (C. perfringens SM101; BHIS containing 0.1% bile salt): able to grow, however, to wild-type levels
germination (decrease in optical density) in BHIS (C. difficile spores [4]): did not result in any significant decrease in the optical density

COC(=O)CC[C@@H](C)[C@H]1CC[C@H]2[C@@H]3[C@H](OC(C)=O)C[C@@H]4C[C@H](OC(C)=O)CC[C@]4(C)[C@H]3CC[C@]12C [5β-cholanic acid-3α,7α-diol diacetate methyl ester]
affinity for C. difficile spores relative to chenodeoxycholate (C. difficile spores [1]): 7-8 times
potency as inhibitor of spore germination relative to chenodeoxycholate (C. difficile spores [1]): approximately ten times more potent
Inhibits Germination? (C. difficile spores [1]): Yes
pKi (C. difficile spores [1]): 4.40

C[C@H](CCC(=O)O)[C@H]1CC[C@H]2[C@@H]3[C@H](O)C[C@@H]4C[C@H](O)CC[C@]4(C)[C@H]3CC[C@]12C [CDCA, chenodeoxycholate]
growth of vegetative C. difficile (vegetative C. difficile): unable to grow; also recorded: inhibited the growth
inhibition of vegetative growth of C. difficile, general statement (vegetative C. difficile): capable of inhibiting the vegetative growth
colony formation after transient exposure, in words (C. difficile spores [5]): did not induce colony formation
inhibition of colony formation in response to cholate (C. difficile spores [5]): inhibited colony formation
inhibition of colony formation in response to taurocholate (C. difficile spores [5]): inhibited colony formation
growth of vegetative C. perfringens (C. perfringens SM101): unable to grow; also recorded: inhibited the growth

C[C@H](CCC(=O)N(C)CC(=O)O)[C@H]1CC[C@H]2[C@@H]3[C@H](O)C[C@@H]4C[C@H](O)CC[C@]4(C)[C@H]3C[C@H](O)[C@]12C [cholylsarcosine]
resistance to deconjugation [6]: resistant to deconjugation

COC(=O)CC[C@@H](C)[C@H]1CC[C@H]2[C@@H]3[C@H](O)C[C@@H]4C[C@H](O)CC[C@]4(C)[C@H]3CC[C@]12C [5β-cholanic acid 3α,7α diol methyl ester, 5β-cholanic acid-3α,7α-diol methyl ester]
Inhibits Germination? (C. difficile spores [1]): Yes
pKi (C. difficile spores [1]): 4.66

NCC(=O)O [glycine]
cogermination in buffer (OD600) (C. difficile spores [4]): germinated in the presence of taurocholate but not in its absence
germination (optical density), glycine plus taurocholate (C. difficile spores [4]): the efficiency of germination was enhanced
germination (optical density), single agent (C. difficile spores [4]): a small decrease in the optical density

C[C@H](CCC(=O)O)[C@H]1CC[C@H]2[C@@H]3[C@H](O)C[C@@H]4C[C@H](O)CC[C@]4(C)[C@H]3C[C@H](O)[C@]12C [CA, cholate]
growth of vegetative C. difficile (vegetative C. difficile): able to grow
colony formation by spores, in words (C. difficile spores [3]): stimulated efficient colony formation
growth of vegetative C. perfringens (C. perfringens SM101): able to grow, however, to wild-type levels
germination (decrease in optical density) in BHIS (C. difficile spores [4]): did not result in any significant decrease in the optical density

C[C@H](CCC(=O)O)[C@H]1CC[C@H]2[C@@H]3[C@@H](O)C[C@@H]4C[C@H](O)CC[C@]4(C)[C@H]3CC[C@]12C [UA, ursodeoxycholate]
inhibition of vegetative growth of C. difficile, general statement (vegetative C. difficile): capable of inhibiting the vegetative growth

C[C@H](CCC(=O)NCCS(=O)(=O)O)[C@H]1CC[C@H]2[C@@H]3[C@H](O)C[C@@H]4C[C@H](O)CC[C@]4(C)[C@H]3CC[C@]12C [Taurochenodeoxycholate, 5β-cholanic acid-3α,7α-diol n-(2-sulphoethyl)-amide sodium salt]
Inhibits Germination? (C. difficile spores [1]; listed as taurochenodeoxycholate, sodium salt): neither 5β-cholanic acid 3α-ol-acetate nor taurochenodeoxycholate was observed to inhibit
Inhibits Germination? (C. difficile spores [1]; sodium salt): No

CC(CCC(=O)O)C1CCC2C3CC(=O)C4CC(O)CCC4(C)C3CCC12C (stereo not shown) [6-ketolithocholate]
Inhibits Germination? (C. difficile spores [1]): Yes
pKi (C. difficile spores [1]): 3.70

C[C@H](CCC(=O)O)[C@H]1CC[C@H]2[C@@H]3CC[C@@H]4C[C@H](O)CC[C@]4(C)[C@H]3C[C@H](O)[C@]12C [DCA, deoxycholate]
growth of vegetative C. difficile (vegetative C. difficile): neither C. difficile nor C. perfringens grew
colony formation after transient exposure, in words (C. difficile spores [5]): indistinguishable from that of spores incubated with taurocholate
growth of vegetative C. perfringens (C. perfringens SM101): neither C. difficile nor C. perfringens grew
germination (decrease in optical density) in BHIS (C. difficile spores [4]): small drop in OD600 that after 60 min was not significantly more than the change in OD of spores in BHIS alone

COC(=O)CC[C@@H](C)[C@H]1CC[C@H]2[C@@H]3[C@H](O)C[C@@H]4C[C@H](OC(C)=O)CC[C@]4(C)[C@H]3CC[C@]12C [5β-cholanic acid-3α,7α-diol 3-acetate methyl ester]
Inhibits Germination? (C. difficile spores [1]): Yes
pKi (C. difficile spores [1]): 4.40
